Measurements as given in patent publication US4883863A, “Tripeptide derivatives and antiplasmin agents containing the same” (Nitto Boseki Co., Ltd., priority 1987, dated 1989).
pIC50: −log10 of the molar value. Structures can show the parent of a compound that is named as a salt. Where a SMILES comes first, the peptide text is derived from it. [ ]: non-standard residue; d: D form. The star is where a group is joined. Tos = Cc1ccc(S(=O)(=O)*)cc1; Moc = COC(=O)*; For = O=C*

Columns and labels:
Assay type in all cases: biochemical
[1] = target: T1, thrombin (Homo sapiens, UniProt P00734); experiment: Thrombin-inhibiting activity, synthetic substrate PS-915; details: Table 4; PS-915, pH 8.5, 37° C.
T1 construct: purchased Sankyo (Color Test ATIII kit)
Text: (§1) Synthetic substrates used for testing the inhibitory activity of the inhibitors on decomposition of substrates by the enzymes were as follows. For plasmin, PS-994 (H--D--Lys(Tos)--Phe--Lys--CHA·2HCl, mfd. by NITTO BOSEKI Co., Ltd.) was used; for thrombin and trypsin, PS-915 (H--D--Phe--Pro--Arg--CHA·2HCl, mfd. by NITTO BOSEKI Co., Ltd.); for Factor Xa, PS-2000 (Z--D--Lys--(HCO)--Gly--Arg--CHA·HCl, mfd. by NITTO BOSEKI Co., Ltd.); and for kallikrein, S-2302 (H--D--Pro--Phe--Arg--pNA, mfd., by Kabi Co., Ltd.).
(§2) As plasmin, standard plasmin of Sankyo Color Test α2 -D1 Kit was used in an amount of 0.3CU/ml. As thrombin, that of Sankyo Color Test ATIII kit was used in an amount of 1.2 NIHU/ml. As trypsin, that of cord 3703 of Worthington was used in an amount of 2 μg/ml. As human Factor Xa, that of Boehringer Manheim Co., Ltd. was used in an amount of 0.25 U/ml. As human plasma kallikrein, that of Kabi Co., Ltd. was used in an amount of 0.12 U/ml. As terminating color reagents, those for Sankyo Color Test Kit were used. The reactions were carried out at 37° C. unless otherwise specified.
Each of aqueous solutions (0.1 ml) of the inhibitors which solutions were various in their respective concentrations was added to 0.4 ml of a buffer solution (a 150 mM aqueous sodium chloride solution containing 150 mM Tris, pH 8.5), and the resulting solution was heated for 5 minutes. To this solution was added 0.2 ml of thrombin solution, followed by incubation for 5 minutes. Then, 0.1 ml of a PS-915 solution (10 mM) was added, followed by incubation for 5 minutes. Thereafter, 2 ml of terminating color reagent was added. After standing for 10 minutes, absorbance at 700 nm was measured, and IC50 was determined in the manner described above.

[2] = target: T2, human Factor Xa (Homo sapiens, UniProt P00742); experiment: Factor Xa-inhibiting activity, synthetic substrate PS-2000; details: Table 4; PS-2000, pH 8.5, 37° C.
T2 construct: purchased Boehringer Manheim Co., Ltd
T2 sequence (P00742 235-488 limits assumed): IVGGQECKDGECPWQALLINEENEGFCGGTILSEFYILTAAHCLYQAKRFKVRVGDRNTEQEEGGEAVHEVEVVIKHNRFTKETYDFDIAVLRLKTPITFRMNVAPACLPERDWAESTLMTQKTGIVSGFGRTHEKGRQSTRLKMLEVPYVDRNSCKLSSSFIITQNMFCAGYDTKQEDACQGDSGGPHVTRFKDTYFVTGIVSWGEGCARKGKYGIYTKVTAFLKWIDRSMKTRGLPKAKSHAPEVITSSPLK
T2 sequence (P00742 41-179 partner limits assumed): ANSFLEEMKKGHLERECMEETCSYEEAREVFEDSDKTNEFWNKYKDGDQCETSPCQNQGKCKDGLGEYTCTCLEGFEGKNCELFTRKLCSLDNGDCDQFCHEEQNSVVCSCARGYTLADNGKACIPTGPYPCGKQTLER
Text: as §1, §2
Each of aqueous solutions (1 ml) of the inhibitors which solutions were various in their respective concentrations was added to 0.3 ml of a buffer solution (a 150 mM aqueous sodium chloride solution containing 50 mM Tris, pH 8.5 ), and the resulting solution was heated for 5 minutes. Then, 0.1 ml of a Factor Xa solution (a 150 mM aqueous sodium chloride solution containing 50 mM Tris and 20 mM calcium chloride, pH 8.5) was added, followed by incubation for 5 minutes. Subsequently, a 5% polyvinyl pyrrobidone solution (0.1 ml) containing 10 mM PS-2000 was added, followed by incubation for 5 min. Thereafter, 2 ml of terminating color reagent was added. After standing for 10 minutes, absorbance at 700 nm was measured and IC50 was determined in the manner described above.

[3] = target: T3, human plasma kallikrein (Homo sapiens, UniProt P03952); experiment: Kallikrein-inhibiting activity, synthetic substrate S-2302; details: Table 4; S-2302, pH 8.0, 37° C.
T3 construct: purchased Kabi Co., Ltd
T3 sequence (P03952 391-638 limits assumed): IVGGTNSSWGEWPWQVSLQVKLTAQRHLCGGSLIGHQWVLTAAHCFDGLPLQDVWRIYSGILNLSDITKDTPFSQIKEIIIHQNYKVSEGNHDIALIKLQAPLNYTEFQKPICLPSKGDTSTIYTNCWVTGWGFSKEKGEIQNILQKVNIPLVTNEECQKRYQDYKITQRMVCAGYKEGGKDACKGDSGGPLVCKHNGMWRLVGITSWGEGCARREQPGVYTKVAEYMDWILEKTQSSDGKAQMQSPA
T3 sequence (P03952 20-390 partner limits assumed): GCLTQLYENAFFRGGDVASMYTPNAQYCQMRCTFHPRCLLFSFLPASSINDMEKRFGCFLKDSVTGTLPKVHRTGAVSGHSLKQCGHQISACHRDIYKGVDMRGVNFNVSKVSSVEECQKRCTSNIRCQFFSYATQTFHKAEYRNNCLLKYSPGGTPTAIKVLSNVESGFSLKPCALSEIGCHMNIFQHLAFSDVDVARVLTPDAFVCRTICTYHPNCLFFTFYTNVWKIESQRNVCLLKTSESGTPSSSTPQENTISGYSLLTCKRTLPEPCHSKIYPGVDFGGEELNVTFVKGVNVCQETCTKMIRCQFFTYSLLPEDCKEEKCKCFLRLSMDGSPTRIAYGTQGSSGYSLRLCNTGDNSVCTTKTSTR
Text: as §1, §2
Each of aqueous solutions (0.1 ml) of the inhibitors which solutions were various in their respective concentrations was added to 0.4 ml of a buffer solution (a 150 mM aqueous sodium chloride solution containing 50 mM Tris, pH 8.0), and the resulting mixture was heated for 5 minutes. Then, 0.1 ml of a kallikrein solution [containing 0.5% bovine serum albumin (No. A8022 available from Sigma Chemical Co.)] was added, followed by incubation for 5 minutes. Subsequently, a 10 mM S-2302 aqueous solution (0.1 ml) was added. The reaction was terminated by addition of a 20% aqueous acetic acid solution. Absorbance at 405 nm was measured and IC50 was measured in the manner described above.

pIC50 [1]	pIC50 [2]	pIC50 [3]	SMILES
< 3.00	4.07	6.00	Cc1ccc(S(=O)(=O)NCCCC[C@@H](NC=O)C(=O)N[C@@H](Cc2ccccc2)C(=O)N[C@H](C=O)CCCCN)cc1 [Compound 4, N-α-Formyl-N-ε-(p-tosyl)-D-lysyl-L-phenylalanyl-L-lysinal hydrochloride] (For-[dK](Tos)-Phe-Lys-aldehyde)
< 3.00	4.66	6.44	COC(=O)N[C@H](CCCCNS(=O)(=O)c1ccc(C)cc1)C(=O)N[C@@H](Cc1ccccc1)C(=O)N[C@H](C=O)CCCCN [Compound 2, N-α-Methoxycarbonyl-N-ε-(p-tosyl)-D-lysyl-L-phenylalanyl-L-lysinal hydrochloride] (Moc-[dK](Tos)-Phe-Lys-aldehyde)
